Source: patent US20250122192A1, “5-PYRIMIDINECARBOXAMIDE DERIVATIVES AND METHODS OF USING THE SAME” (Rgenta Therapeutics, Inc., priority 2021, published 2025)

Tested on: PMS1
Assay: Mini-gene reporter assay-PMS1
Format: cell-based
Conditions: Homo sapiens, HEK293, PMS1 mini-gene firefly luciferase reporter transiently transfected into HEK293 cells; read-out: PMS1 IC50
Source text: Biological Activity of the Compounds of the Present Disclosure Mini-gene reporter assay-PMS1
Mini-gene reporter constructs for each target site can be constructed by first PCR amplifying the region-of-interest including the sequence of the alternatively skipped, sequences of the immediate upstream and downstream introns, and sequences of the immediate upstream and downstream exons. Then the 3′end of the amplified sequence can be ligated to a firefly luciferase reporter gene and cloned into the pcDNA3.1 vector backbone. The final reporter construct can be transiently transfected into HEK293 cells using Lipofectamine 3000 transfection reagents. Compounds that can induce the inclusion of the skipped exon in the reporter construct would increase the reporter firefly luciferase activity.
Test compounds may be diluted in duplicates and dispensed into an assay plate. Transient mini-gene reporter cell line stock is resuspended and dispensed into the assay plate. Assay plates are then centrifuged and incubated. A luciferase reagent (e.g. ONE-Glo firefly luciferase reagent from Promega®) may be added to the assay plate and the luminescence (RLU) signals recorded. PMS1 EC50 values may be determined by curve fitting in Levenberg-Marquardt algorithm.

SMILES | IC50
CCOc1nc(N2CCC(NC)C2)ncc1C(=O)Nc1cn2cc(C)nc2c(C)n1 (stereo not shown) [Compound 99] | < 500 nM
CCNC1CN(c2ncc(C(=O)Nc3cn4cc(C)nc4c(C)n3)c(OCC)n2)C1 [Compound 100] | > 3000 nM
CCOc1nc(N2CCNC(C)C2)ncc1C(=O)Nc1cn2cc(C)nc2c(C)n1 (stereo not shown) [Compound 102] | 500 to 1000 nM
CCOc1nc(N2CCCNCC2)ncc1C(=O)Nc1cn2cc(C)nc2c(C)n1 [Compound 103] | 1000 to 3000 nM
CCOc1nc(N2CC3(CNCCO3)C2)ncc1C(=O)Nc1cn2cc(C)nc2c(C)n1 [Compound 104] | > 3000 nM
CCOc1nc(N2CCC3(CCCNC3)C2)ncc1C(=O)Nc1cn2cc(C)nc2c(C)n1 (stereo not shown) [Compound 106] | > 3000 nM
CCOc1nc(N2CCC(N3CCNCC3)C2)ncc1C(=O)Nc1cc(F)c2nc(C)cn2c1 (stereo not shown) [Compound 107] | 1000 to 3000 nM
CCOc1nc(N2CCCC(C3CCNC3)C2)ncc1C(=O)Nc1cc(F)c2nc(C)cn2c1 (stereo not shown) [Compound 108] | 500 to 1000 nM
CCOc1nc(N2CCNCC(CO)C2)ncc1C(=O)Nc1cc(F)c2nc(C)cn2c1 (stereo not shown) [Compound 109] | 1000 to 3000 nM
CCOc1nc(N2CCNC(CC(F)F)C2)ncc1C(=O)Nc1cc(F)c2nc(C)cn2c1 (stereo not shown) [Compound 110] | 1000 to 3000 nM
CCOc1nc(N2CCNC(CF)C2)ncc1C(=O)Nc1cc(F)c2nc(C)cn2c1 (stereo not shown) [Compound 111] | > 3000 nM
CCOc1nc(N2CCNCC2C(F)F)ncc1C(=O)Nc1cc(F)c2nc(C)cn2c1 (stereo not shown) [Compound 112] | 1000 to 3000 nM
CCOc1nc(N2CCNCC2C2CC2)ncc1C(=O)Nc1cc(F)c2nc(C)cn2c1 (stereo not shown) [Compound 113] | 1000 to 3000 nM
CCOc1nc(N2CC3=C(CNC3)C2)ncc1C(=O)Nc1cc(F)c2nc(C)cn2c1 [Compound 114] | < 500 nM
CCOc1nc(N2CCNC(C(F)F)C2)ncc1C(=O)Nc1cc(F)c2nc(C)cn2c1 (stereo not shown) [Compound 115] | > 3000 nM
CCOc1nc(N2CCNCC3(CC3)C2)ncc1C(=O)Nc1cc(F)c2nc(C)cn2c1 [Compound 116] | < 500 nM
CCOc1nc(N(C)C[C@H]2[C@@H]3CNC[C@@H]32)ncc1C(=O)Nc1cc(F)c2nc(C)cn2c1 [Compound 117] | 1000 to 3000 nM
CCOc1nc(N2CCNCC(C)(C)C2)ncc1C(=O)Nc1cc(F)c2nc(C)cn2c1 [Compound 118] | 1000 to 3000 nM
CCOc1nc(N2CCC(CNC(C)C)CC2)ncc1C(=O)Nc1cc(F)c2nc(C)cn2c1 [Compound 119] | < 500 nM
CCOc1nc(N2CCC(C3CCCN3)C2)ncc1C(=O)Nc1cc(F)c2nc(C)cn2c1 (stereo not shown) [Compound 120] | < 500 nM
CCOc1nc(N2CCCNC(CO)C2)ncc1C(=O)Nc1cc(F)c2nc(C)cn2c1 (stereo not shown) [Compound 121] | 1000 to 3000 nM

SMILES | IC50
CCOc1nc(N2CCCC3NCCCC32)ncc1C(=O)Nc1cc(F)c2nc(C)cn2c1 (stereo not shown) [Compound 122] | 500 to 1000 nM
CCOc1nc(N2CCC(C3NCC3(C)C)CC2)ncc1C(=O)Nc1cc(F)c2nc(C)cn2c1 (stereo not shown) [Compound 123] | < 500 nM
CCOc1nc(N2CC3C4CCC(NC4)C3C2)ncc1C(=O)Nc1cc(F)c2nc(C)cn2c1 (stereo not shown) [Compound 125] | 500 to 1000 nM
CCOc1nc(N2CCC3CCCC(C2)N3)ncc1C(=O)Nc1cc(F)c2nc(C)cn2c1 (stereo not shown) [Compound 126] | 1000 to 3000 nM
CCOc1nc(N2CCC(C3CCNC3)C2)ncc1C(=O)Nc1cc(F)c2nc(C)cn2c1 (stereo not shown) [Compound 127] | 500 to 1000 nM
CCOc1nc(N2CC3CCC2C2CNCC32)ncc1C(=O)Nc1cc(F)c2nc(C)cn2c1 (stereo not shown) [Compound 128] | < 500 nM
CCOc1nc(N2CCC(C3(O)CNC3)CC2)ncc1C(=O)Nc1cc(F)c2nc(C)cn2c1 [Compound 129] | > 3000 nM
CCOc1nc(N2C3CCCC2CNC3)ncc1C(=O)Nc1cc(F)c2nc(C)cn2c1 [Compound 130] | 1000 to 3000 nM
CCOc1nc(N2CC(C)CNC(C)C2)ncc1C(=O)Nc1cc(F)c2nc(C)cn2c1 (stereo not shown) [Compound 131] | 500 to 1000 nM
CCOc1nc(N2CCCC3CNCCC32)ncc1C(=O)Nc1cc(F)c2nc(C)cn2c1 (stereo not shown) [Compound 132] | < 500 nM
CCOc1nc(N2CCC(C3NCC34CCC4)CC2)ncc1C(=O)Nc1cc(F)c2nc(C)cn2c1 (stereo not shown) [Compound 133] | 500 to 1000 nM
CCOc1nc(N2CC3CNC(C3)C2)ncc1C(=O)Nc1cc(F)c2nc(C)cn2c1 (stereo not shown) [Compound 134] | 1000 to 3000 nM
CCOc1nc(N2CCC3CCNCC3C2)ncc1C(=O)Nc1cc(F)c2nc(C)cn2c1 (stereo not shown) [Compound 135] | 500 to 1000 nM
CCOc1nc(N2CC3CNCCC32)ncc1C(=O)Nc1cc(F)c2nc(C)cn2c1 (stereo not shown) [Compound 136] | < 500 nM
CCOc1nc(N2CCN(C3CCNCC3)CC2)ncc1C(=O)Nc1cc(F)c2nc(C)cn2c1 [Compound 137] | > 3000 nM
CCOc1nc(N(C)C2CCCCNC2)ncc1C(=O)Nc1cc(F)c2nc(C)cn2c1 (stereo not shown) [Compound 138] | 1000 to 3000 nM
CCOc1nc(N2CC(C3CCNCC3)C2)ncc1C(=O)Nc1cc(F)c2nc(C)cn2c1 [Compound 141] | 500 to 1000 nM
CCOc1nc(N2C3CCC2CC(NC)C3)ncc1C(=O)Nc1cc(F)c2nc(C)cn2c1 (stereo not shown) [Compound 157] | < 500 nM
CCOc1nc(N(C)C2CCNCC2C)ncc1C(=O)Nc1cc(F)c2nc(C)cn2c1 (stereo not shown) [Compound 160] | < 500 nM
CCOc1nc(N2CCC3CCC(C2)N3)ncc1C(=O)Nc1cc(F)c2nc(C)cn2c1 (stereo not shown) [Compound 167] | 1000 to 3000 nM
CCOc1nc(N2C3CCNCC2CC3)ncc1C(=O)Nc1cc(F)c2nc(C)cn2c1 (stereo not shown) [Compound 175] | > 3000 nM

Other lines, results leading:

IC50 | SMILES
1000 to 3000 nM | CCOc1nc(N2CCC(C3CNC3)CC2)ncc1C(=O)Nc1cc(F)c2nc(C)cn2c1 [Compound 142]
< 500 nM | CCOc1nc(N2CC(C3CNC3)C2)ncc1C(=O)Nc1cc(F)c2nc(C)cn2c1 [Compound 143]
> 3000 nM | CCOc1nc(N2CCOC3(CNC3)C2)ncc1C(=O)Nc1cc(F)c2nc(C)cn2c1 [Compound 144]
> 3000 nM | CCOc1nc(N2CCOC3(CCCNC3)C2)ncc1C(=O)Nc1cc(F)c2nc(C)cn2c1 (stereo not shown) [Compound 145]
< 500 nM | CCOc1nc(N2CCCC(C3CCNCC3)C2)ncc1C(=O)Nc1cc(F)c2nc(C)cn2c1 (stereo not shown) [Compound 146]
< 500 nM | CCOc1nc(N2CCCC(C3CCCCN3)C2)ncc1C(=O)Nc1cc(F)c2nc(C)cn2c1 (stereo not shown) [Compound 147]
1000 to 3000 nM | CCOc1nc(N2C[C@]3(C)CNC[C@]3(C)C2)ncc1C(=O)Nc1cc(F)c2nc(C)cn2c1 [Compound 148]
> 3000 nM | CCOc1nc(N2CC(C)OC3(CCNC3)C2)ncc1C(=O)Nc1cc(F)c2nc(C)cn2c1 (stereo not shown) [Compound 149]
1000 to 3000 nM | CCOc1nc(N2CCCCC(C3CNC3)C2)ncc1C(=O)Nc1cc(F)c2nc(C)cn2c1 (stereo not shown) [Compound 150]
1000 to 3000 nM | CCOc1nc(N2CC34CCCC3(CNC4)C2)ncc1C(=O)Nc1cc(F)c2nc(C)cn2c1 (stereo not shown) [Compound 151]
500 to 1000 nM | CCOc1nc(N2CC3(CCNCC3)CC2C)ncc1C(=O)Nc1cc(F)c2nc(C)cn2c1 (stereo not shown) [Compound 152]
< 500 nM | CCNC1CCN(c2ncc(C(=O)Nc3cc(F)c4nc(C)cn4c3)c(OCC)n2)C1 (stereo not shown) [Compound 154]
< 500 nM | CCOc1nc(N2CCC(NCCOC)CC2)ncc1C(=O)Nc1cc(F)c2nc(C)cn2c1 [Compound 155]
> 3000 nM | CCOc1nc(N2CCCC(C3CNC3)C2)ncc1C(=O)Nc1cc(F)c2nc(C)cn2c1 (stereo not shown) [Compound 159]
< 500 nM | CCOc1nc(N(C)[C@H]2CCCNC2)ncc1C(=O)Nc1cc(F)c2nc(C)cn2c1 [Compound 163]
< 500 nM | CCOc1nc(N2CCC(NCC3CC3)CC2)ncc1C(=O)Nc1cc(F)c2nc(C)cn2c1 [Compound 164]
1000 to 3000 nM | CCOc1nc(N2CC(CO)C3(CNC3)C2)ncc1C(=O)Nc1cc(F)c2nc(C)cn2c1 (stereo not shown) [Compound 165]
1000 to 3000 nM | CCOc1nc(N2CC34CCCCC3(CNC4)C2)ncc1C(=O)Nc1cc(F)c2nc(C)cn2c1 (stereo not shown) [Compound 166]
< 500 nM | CCOc1nc(N(CC)C2CCCNCC2)ncc1C(=O)Nc1cc(F)c2nc(C)cn2c1 (stereo not shown) [Compound 168]
1000 to 3000 nM | CCOc1nc(N2CCNCC(O)C2)ncc1C(=O)Nc1cc(F)c2nc(C)cn2c1 (stereo not shown) [Compound 171]
< 500 nM | CCOc1nc(N(C)C2CCCNCC2)ncc1C(=O)Nc1cc(F)c2nc(C)cn2c1 (stereo not shown) [Compound 173]
500 to 1000 nM | CCNC1CCCN(c2ncc(C(=O)Nc3cc(F)c4nc(C)cn4c3)c(OCC)n2)C1 (stereo not shown) [Compound 176]
< 500 nM | CCOc1nc(N2CCCC(C3CCCN3)C2)ncc1C(=O)Nc1cc(F)c2nc(C)cn2c1 (stereo not shown) [Compound 180]
1000 to 3000 nM | CCOc1nc(N2CC[C@@H]3CNC[C@@H]3CC2)ncc1C(=O)Nc1cc(F)c2nc(C)cn2c1 [Compound 181]
500 to 1000 nM | CCOc1nc(N2CCC3(CC2)CNC3C(C)C)ncc1C(=O)Nc1cc(F)c2nc(C)cn2c1 (stereo not shown) [Compound 182]
> 3000 nM | CCOc1nc(N2CCCC3(CCNC3)C2)ncc1C(=O)Nc1cc(F)c2nc(C)cn2c1 (stereo not shown) [Compound 183]
500 to 1000 nM | CCOc1nc(N2CCCC(C3CCCNC3)C2)ncc1C(=O)Nc1cc(F)c2nc(C)cn2c1 (stereo not shown) [Compound 184]

Same assay, conditions: Homo sapiens; at 5 μM; PMS1 mini-gene firefly luciferase reporter in HEK293 cells; read-out: PMS1% Effect at 5 μM

SMILES | activation at 5 µM
CCOc1nc(N2CCNCC(F)(F)C2)ncc1C(=O)Nc1cc(F)c2nc(C)cn2c1 [Compound 140] | < 50%
CCOc1nc(N2CCCC(OC3CNC3)C2)ncc1C(=O)Nc1cc(F)c2nc(C)cn2c1 (stereo not shown) [Compound 153] | 50 to 75%
CCOc1nc(N2CC(C)OC3(CCNCC3)C2)ncc1C(=O)Nc1cc(F)c2nc(C)cn2c1 (stereo not shown) [Compound 162] | < 50%
CCOc1nc(N2CCCC3(CNCCO3)C2)ncc1C(=O)Nc1cc(F)c2nc(C)cn2c1 (stereo not shown) [Compound 172] | < 50%
